{"source": "patent US20200390767A1", "about": "“Formulations of 4-(7-Hydroxy-2-isopropyl-4-oxo-4H-quinazolin-3-yl)-benzonitrile” (NOVARTIS AG, priority 2019, published 2020)", "key": {"[1]": {"assay": "Solubility of compound I in solvents", "assay_type": "physicochemical", "text": "As noted above, compound I is sparingly soluble in various media."}, "TRPV1 receptor": {"target": "TRPV1 receptor (Homo sapiens, UniProt Q8NER1)", "sequence (Q8NER1 whole entry)": "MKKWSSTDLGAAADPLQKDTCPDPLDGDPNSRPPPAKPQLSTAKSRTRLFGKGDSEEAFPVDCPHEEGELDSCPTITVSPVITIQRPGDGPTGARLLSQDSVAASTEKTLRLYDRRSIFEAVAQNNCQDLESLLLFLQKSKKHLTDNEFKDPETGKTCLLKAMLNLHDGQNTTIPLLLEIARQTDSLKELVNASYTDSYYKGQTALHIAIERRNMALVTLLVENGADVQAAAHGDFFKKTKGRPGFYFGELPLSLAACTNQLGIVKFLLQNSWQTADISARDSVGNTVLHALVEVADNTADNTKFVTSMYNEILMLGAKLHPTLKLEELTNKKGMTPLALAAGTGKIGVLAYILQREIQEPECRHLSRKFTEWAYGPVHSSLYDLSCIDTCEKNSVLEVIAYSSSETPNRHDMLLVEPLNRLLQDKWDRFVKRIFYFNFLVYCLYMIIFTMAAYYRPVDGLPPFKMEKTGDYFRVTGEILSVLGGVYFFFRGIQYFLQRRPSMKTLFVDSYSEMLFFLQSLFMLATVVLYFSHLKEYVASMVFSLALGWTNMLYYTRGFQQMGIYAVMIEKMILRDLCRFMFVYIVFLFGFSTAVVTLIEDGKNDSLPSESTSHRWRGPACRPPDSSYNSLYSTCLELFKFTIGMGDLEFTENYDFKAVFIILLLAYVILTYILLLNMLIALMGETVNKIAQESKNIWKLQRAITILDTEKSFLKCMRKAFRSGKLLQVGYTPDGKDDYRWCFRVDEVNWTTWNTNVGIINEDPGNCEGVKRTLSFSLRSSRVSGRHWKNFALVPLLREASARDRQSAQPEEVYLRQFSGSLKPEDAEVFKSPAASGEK", "assay": "TRPV1 receptor activity", "assay_type": "cell-based", "method": "“TRPV1 receptor” refers to the Transient Receptor Potential Vanilloid 1 that has been characterized through molecular cloning and pharmacology. See e.g., Caterina M J, et al., Nature 1997; 389:816-824. TRPV1 receptor activity is measured as described in WO2005/120510, hereby incorporated by reference in its entirety."}, "healthy volunteers": {"system": "healthy volunteers", "assay": "First in human study, safety (SAD and MAD adverse events)", "assay_type": "in vivo", "conditions": "8 times daily for 7 days", "method": "This example describes a first-in-human study of compound I conducted in healthy volunteers. A total of 54 subjects were administered to study medication. Part 1 of the first in human study administered single ascending doses of 0.15%, 1.5%, 2.5% w/v (1 drop) of compound I in an eye drop.\nPart 2 tested multiple ascending doses (MAD) of compound I, administering (i) 1 drop of 0.15%, 1.5%, 2.5%, 4 times daily (every 6 hours) for 7 days or (ii) 1 drop of 2.5%, 8 times daily (every 3 hours) for 7 days (supra-therapeutic dose) as eye drops.\nSafety assessments: Safety assessments consisted of collecting all adverse events (AEs), serious adverse events (SAEs), including systemic and ocular adverse events, along with their severity and relationship to study drug. Systemic safety assessments included regular monitoring of hematology, blood chemistry and urinalysis performed at study center and regular assessments of physical examination, vital signs (systolic and diastolic blood pressure, pulse rate, and body temperature), ECG, pregnancy and assessments of fertility and hand immersion test at 49° C. during MAD part. Ocular safety assessments included early treatment diabetic retinopathy study (ETDRS) visual acuity, intraocular pressure, slit-lamp biomicroscopy, corneal staining and dilated fundus exam. […]"}, "[2]": {"system": "postoperative ocular pain in patients undergoing photorefractive keratectomy (PRK) surgery", "assay": "PRK clinical study, oral rescue medication use", "assay_type": "in vivo, human", "method": "Rescue medication consisted of oral analgesic (acetaminophen 300 mg+codeine 30 mg) as needed up to a total of 10 tabs/day or 1-2 tabs every 4 hours.\nAfter 36 hours post-operation, the same number of patients took ORM in compound I vs. Vehicle (Table 24)."}, "[3]": {"system": "postoperative ocular pain in patients undergoing photorefractive keratectomy (PRK) surgery", "assay": "PRK clinical study, Ocular Pain Assessment Survey (OPAS)", "assay_type": "in vivo, human", "text": "The Ocular Pain Assessment Survey (OPAS) is a quantitative, multidimensional questionnaire, specifically designed for assessment of corneal and ocular surface pain and Quality of Life (QoL) changes. The OPAS assesses pain intensity, frequency of eye and non-eye pain, QoL changes, aggravating factors, associated factors, and symptomatic relief quantitative, allowing for monitoring of treatment responses. See Qazi et al., Ophthalmology July 123(7):1458-1468 (2016).\nThe OPAS is a validated instrument for quantifying and monitoring corneal and ocular surface pain and quality of life, developed in response to an identified need from a National Eye Institute Workshop in 2010. See Qazi et al., Ophthalmology July 123(7):1458-1468 (2016). The rating scale of the overall pain severity in the OPAS from Qazi et al. rated from 0 (no pain) to 10 (severe pain) or for frequency of symptoms from 0% (never) to 100% (all the time), as per the survey. The patients were asked to fill out the OPAS survey/questionnaire at Day 2, Day 4 (at the end of treatment period with study drug) and Day 8. Statistical analysis of OPAS results was not performed."}}}
{"smiles": "CC(C)c1nc2cc(O)ccc2c(=O)n1-c1ccc(C#N)cc1", "note": "[Compound I, 4-(7-hydroxy-2-isopropyl-4-oxo-4H-quinazolin-3-yl)-benzonitrile]", "values": [{"measurement": "solubility", "setting": "[1]; isopropyl myristate, oil or lipid, solvent: Isopropyl Myrisate", "value": 90, "unit": "µg/mL"}, {"measurement": "solubility", "setting": "[1]; oil or lipid, solvent: Medium-Chain Triglycerides (Miglyol 812)", "value": 100, "unit": "µg/mL"}, {"measurement": "solubility", "setting": "[1]; oil or lipid, solvent: Mineral Oil", "value": 30, "unit": "µg/mL"}, {"measurement": "solubility", "setting": "[1]; oil or lipid, solvent: Oleyl Alcohol", "value": 120, "unit": "µg/mL"}, {"measurement": "solubility", "setting": "[1]; organic solvent or mixture, solvent: Diisopropyl Adipate", "value": 160, "unit": "µg/mL"}, {"measurement": "solubility", "setting": "[1]; organic solvent or mixture, solvent: Ethanol", "value": 790, "unit": "µg/mL"}, {"measurement": "solubility", "setting": "[1]; organic solvent or mixture, solvent: Hexylene Glycol", "value": 280, "unit": "µg/mL"}, {"measurement": "solubility", "setting": "[1]; organic solvent or mixture, solvent: Isopropanol", "value": 330, "unit": "µg/mL"}, {"measurement": "solubility", "setting": "[1]; organic solvent or mixture, solvent: Isosorbide", "value": 340, "unit": "µg/mL"}, {"measurement": "solubility", "setting": "[1]; organic solvent or mixture, solvent: Polyethylene Glycol 200", "value": 1620, "unit": "µg/mL"}, {"measurement": "solubility", "setting": "[1]; organic solvent or mixture, solvent: Polyethylene Glycol 300", "value": 2040, "unit": "µg/mL"}, {"measurement": "solubility", "setting": "[1]; organic solvent or mixture, solvent: Polyethylene Glycol 400", "value": 1660, "unit": "µg/mL"}, {"measurement": "solubility", "setting": "[1]; organic solvent or mixture, solvent: Propylene Carbonate", "value": 400, "unit": "µg/mL"}, {"measurement": "solubility", "setting": "[1]; organic solvent or mixture, solvent: Propylene Glycol", "value": 1680, "unit": "µg/mL"}, {"measurement": "solubility", "setting": "[1]; solvent: Water", "value": 10, "unit": "µg/mL"}, {"measurement": "IC50", "setting": "TRPV1 receptor", "value": 30, "unit": "nM"}, {"measurement": "dose limiting adverse events", "setting": "healthy volunteers; 2.5%", "value": "No dose limiting adverse events were identified"}, {"measurement": "Maximum Tolerated Dose (MTD)", "setting": "healthy volunteers; eye drops, healthy volunteers", "value": 2.5, "unit": "%"}, {"measurement": "% Change (Compound I-Vehicle)/Vehicle, mg/kg of body weight", "setting": "[2]; 0-6 hours post-operatively", "value": "−25", "unit": "%"}, {"measurement": "% Change (Compound I-Vehicle)/Vehicle, number of pills", "setting": "[2]; 0-6 hours post-operatively", "value": "−25", "unit": "%"}, {"measurement": "amount of oral rescue medication, Mean (SD)", "setting": "[2]; 0-6 hours post-operatively", "value": "3.32 (4.684) mg/kg of body weight"}, {"measurement": "amount of oral rescue medication, Mean (SD)", "setting": "[2]; 0-6 hours post-operatively, listed as compound I", "value": "0.75 (1.032) Number of pills"}, {"measurement": "% Change (Compound I-Vehicle)/Vehicle, mg/kg of body weight", "setting": "[2]; 0-12 hours post-operatively", "value": "−17", "unit": "%"}, {"measurement": "% Change (Compound I-Vehicle)/Vehicle, number of pills", "setting": "[2]; 0-12 hours post-operatively", "value": "−15", "unit": "%"}, {"measurement": "amount of oral rescue medication, Mean (SD)", "setting": "[2]; 0-12 hours post-operatively", "value": "6.10 (8.062) mg/kg of body weight"}, {"measurement": "amount of oral rescue medication, Mean (SD)", "setting": "[2]; 0-12 hours post-operatively, listed as compound I", "value": "1.40 (1.780) Number of pills"}, {"measurement": "% Change (Compound I-Vehicle)/Vehicle, mg/kg of body weight", "setting": "[2]; 0-24 hours post-operatively", "value": "−18", "unit": "%"}, {"measurement": "% Change (Compound I-Vehicle)/Vehicle, number of pills", "setting": "[2]; 0-24 hours post-operatively", "value": "−16", "unit": "%"}, {"measurement": "amount of oral rescue medication, Mean (SD)", "setting": "[2]; 0-24 hours post-operatively", "value": "10.17 (12.335) mg/kg of body weight"}, {"measurement": "amount of oral rescue medication, Mean (SD)", "setting": "[2]; 0-24 hours post-operatively, listed as compound I", "value": "2.35 (2.751) Number of pills"}, {"measurement": "% Change (Compound I-Vehicle)/Vehicle, mg/kg of body weight", "setting": "[2]; 0-48 hours post-operatively", "value": "−14", "unit": "%"}, {"measurement": "% Change (Compound I-Vehicle)/Vehicle, number of pills", "setting": "[2]; 0-48 hours post-operatively", "value": "−13", "unit": "%"}, {"measurement": "amount of oral rescue medication, Mean (SD)", "setting": "[2]; 0-48 hours post-operatively", "value": "17.59 (19.850) mg/kg of body weight"}, {"measurement": "amount of oral rescue medication, Mean (SD)", "setting": "[2]; 0-48 hours post-operatively, listed as compound I", "value": "4.05 (4.466) Number of pills"}, {"measurement": "% Change (Compound I-Vehicle)/Vehicle, mg/kg of body weight", "setting": "[2]; 0-72 hours post-operatively", "value": "−15", "unit": "%"}, {"measurement": "% Change (Compound I-Vehicle)/Vehicle, number of pills", "setting": "[2]; 0-72 hours post-operatively", "value": "−14", "unit": "%"}, {"measurement": "amount of oral rescue medication, Mean (SD)", "setting": "[2]; 0-72 hours post-operatively", "value": "18.70 (21.509) mg/kg of body weight"}, {"measurement": "amount of oral rescue medication, Mean (SD)", "setting": "[2]; 0-72 hours post-operatively, listed as compound I", "value": "4.33 (4.896) Number of pills"}, {"measurement": "OPAS eye pain intensity during the previous 24 hours (questions 4, 5, 6) versus Vehicle", "setting": "[3]; Day 2", "value": "all 3 answers numerically favored compound I"}, {"measurement": "OPAS how often eye pain with redness, burning, sensitivity to light, tearing (questions 22-25) versus Vehicle", "setting": "[3]; human, in vivo", "value": "all answers favored compound I"}]}
